Test results: PMC6191185 (Cancer cell, 2018)

Molecular target: T1, CARM1 (co-activator associated arginine methyltransferase 1, PRMT4) (Homo sapiens, UniProt Q86X55)
T1 sequence (Q86X55 2-608): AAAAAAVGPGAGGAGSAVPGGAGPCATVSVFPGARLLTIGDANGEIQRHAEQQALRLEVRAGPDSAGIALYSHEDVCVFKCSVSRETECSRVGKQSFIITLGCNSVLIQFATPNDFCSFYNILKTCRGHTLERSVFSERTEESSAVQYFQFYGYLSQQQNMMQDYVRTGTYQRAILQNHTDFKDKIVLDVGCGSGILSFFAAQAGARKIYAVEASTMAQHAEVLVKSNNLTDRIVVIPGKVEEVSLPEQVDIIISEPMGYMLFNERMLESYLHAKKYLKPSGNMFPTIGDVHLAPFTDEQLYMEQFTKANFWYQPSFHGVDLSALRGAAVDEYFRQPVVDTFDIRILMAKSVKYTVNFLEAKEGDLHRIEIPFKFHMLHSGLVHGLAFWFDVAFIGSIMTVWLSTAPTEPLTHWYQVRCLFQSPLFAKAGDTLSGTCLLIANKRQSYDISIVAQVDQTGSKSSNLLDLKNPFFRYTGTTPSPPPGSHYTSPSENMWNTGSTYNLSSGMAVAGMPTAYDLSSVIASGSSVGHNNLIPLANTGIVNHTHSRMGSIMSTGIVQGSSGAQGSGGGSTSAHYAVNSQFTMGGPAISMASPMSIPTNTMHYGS
Test: cellular CARM1 substrate methylation
Format: cell-based

IC50: 18 nM
Structure (SMILES): CNC[C@@H](O)COc1ccc(Cl)c(-c2nc(-c3c(C)noc3C)c(C)c(N3Cc4cnc(N5CCC5)nc4C3)n2)c1 [EPZ025654]
